Residues, ends and D or L forms follow the SMILES beside them. *: point of attachment. Cbz = O=C(OCc1ccccc1)*
How the values were obtained:
[1] = target: T1, Cdk5 (Mus musculus, UniProt P49615); test: Cdk5 inhibition in striatal slices by blotting phospho-Thr75 DARPP-32; type: cell-based
T1 construct: from tissue; host or cells: acute striatal slices
Experimental: (§1) Slices were treated with SKF81297 (1 μM, 10 min), calpain inhibitor 3, calpeptin (20 μM, 1 h), Ca^2+-free Krebs (1 h), and Indo A or B (1 h) at indicated concentrations. See Methods.
(§2) Abs to p35, DARPP-32 (Nishi et al., 1997), GFAP, and p25 were used to stain rat coronal cryosections (20 μm) from control and stroked hemispheres. […] See Methods for further details.
To assess the deleterious effects of aberrantly active Cdk5/p25, the selective and potent Cdk5 inhibitor, indolinone A (Gillardon et al., 2005) (Indo A) was employed. First, its ability to inhibit Cdk5 in striatal slices was assessed by treating striatal slices with various concentrations (1-10 μM) of Indo A and blotting the lysates for the defined Cdk5 site, phospho-Thr75 DARPP-32 (Bibb et al., 1999). […] In contrast the congener Indolinone B, which is limited in specificity to Cdk4 (Weishaupt et al., 2003), had no effect on Cdk5-dependent phosphorylation of DARPP-32.

[2] = test system: coronal mouse brain slices; test: TTC viability staining of coronal brain slices subjected to OGD; type: cell-based; conditions: for neuroprotective effect against OGD-induced neuronal death / viability (TTC staining) after 60 min OGD: incubation 1 h prior to and during OGD; for viability (TTC staining) after 60 min OGD: 60 min without oxygen and glucose
Experimental: as §1, §2
Having established this pharmacological approach, the effect of OGD on neuronal viability was next quantitatively assessed by 2, 3, 5-triphenyltetrazolium chloride (TTC) staining (Bederson et al., 1986) (FIGS. 8E and 8F). TTC staining was readily observed in coronal mouse brain slices oxygenated in Kreb's buffer for 1 h. OGD induced time-dependent neuronal death with TTC staining reduced to 60.8±2.1 and 0.6±7.9% of control levels by exposure to ischemic conditions for 30 and 60 min, respectively.

[3] = target: T2, D1 dopamine receptor (Mus musculus, UniProt Q61616); test: D1 agonist-induced PKA-dependent phosphorylation in striatal slices; type: cell-based
T2 construct: from tissue; host or cells: acute mouse striatal slices
T2 sequence (Q61616 whole entry): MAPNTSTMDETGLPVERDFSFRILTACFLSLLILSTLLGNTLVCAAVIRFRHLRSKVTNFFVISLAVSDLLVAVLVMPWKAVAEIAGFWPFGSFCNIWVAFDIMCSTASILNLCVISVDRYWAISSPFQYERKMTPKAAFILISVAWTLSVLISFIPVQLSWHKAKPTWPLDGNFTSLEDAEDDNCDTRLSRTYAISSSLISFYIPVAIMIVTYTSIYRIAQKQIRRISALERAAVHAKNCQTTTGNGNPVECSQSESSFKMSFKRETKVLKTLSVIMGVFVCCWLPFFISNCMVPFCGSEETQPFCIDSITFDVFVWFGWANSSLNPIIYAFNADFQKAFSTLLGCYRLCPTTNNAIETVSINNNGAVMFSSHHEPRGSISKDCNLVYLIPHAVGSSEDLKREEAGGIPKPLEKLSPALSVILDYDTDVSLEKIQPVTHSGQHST
Experimental: Homogenates were prepared from rapidly dissected tissue or striatal slices using standard methodology (Nishi et al., 1997).

[4] = test system: striatal projecting spiny neurons; test: Electrophysiological recordings (EPSP, membrane potential, field potential) in corticostriatal slices under OGD; type: cell-based; conditions: pre-treatment
Text: Electrophysiological recordings of FPs and single unit activity were taken from slices under physiological and OGD conditions using described methodology (Calabresi et al., 1998; Picconi et al., 2003; Costa et al., 2006).
To better understand the physiological effects of shorter periods of ischemia, a neurophysiological approach was utilized. Sharp microelectrode intracellular recordings were obtained from striatal projecting spiny neurons identified according to their electrophysiological characteristics (Calabresi et al., 1998). In these neurons, a very brief period (2-3 min) of OGD induced loss of membrane potential (FIGS. 10A-B) and a transient suppression of the excitatory post-synaptic potential (EPSP) followed by a long-term increase in the EPSP amplitude in comparison to the pre-ischemic period (139.7±10.3%, n=5, p<0.05, FIG. 10C). This long-term increase of the glutamatergic transmission at corticostriatal synapses, called post-ischemic LTP (i-LTP), represents a pathological form of synaptic plasticity occurring after brain ischemia (Calabresi et al., 2003; Calabresi et al., 1998; Calabresi et al., 2002). […] Extracellular field potential (FP) recordings were also obtained from corticostriatal slices. In control conditions, 10 min of OGD caused an irreversible loss of FP (FIGS. 10E-F).

[5] = test system: calpain; conditions: preincubation 20 μM, 1 h, striatal slices
Experimental: Acutely prepared coronal slices were prepared as described (Nishi et al., 1997). For OGD, slices were switched from Kreb's buffer bubbled in 95% O2/5% CO2 to 100% N2 and glucose was replaced by 10 mM sucrose for indicated periods (Sahin et al., 2008; Sahin et al., 2007). […] Homogenates were prepared from rapidly dissected tissue or striatal slices using standard methodology (Nishi et al., 1997). […] For immunostaining of cultured cells, rat primary striatal neuron cultures were prepared, subjected to control or OGD conditions, fixed and stained as described (Meyer et al., 2008).

T1 sequence (P49615 whole entry): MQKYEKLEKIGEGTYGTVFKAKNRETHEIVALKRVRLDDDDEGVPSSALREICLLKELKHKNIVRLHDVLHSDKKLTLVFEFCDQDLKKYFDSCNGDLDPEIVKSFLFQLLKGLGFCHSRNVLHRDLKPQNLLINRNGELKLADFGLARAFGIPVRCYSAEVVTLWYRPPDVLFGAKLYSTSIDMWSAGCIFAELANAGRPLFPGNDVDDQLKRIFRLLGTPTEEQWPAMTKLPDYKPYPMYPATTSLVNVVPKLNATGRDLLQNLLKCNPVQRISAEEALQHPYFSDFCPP
T1 sequence (P61809 2-307 partner limits assumed): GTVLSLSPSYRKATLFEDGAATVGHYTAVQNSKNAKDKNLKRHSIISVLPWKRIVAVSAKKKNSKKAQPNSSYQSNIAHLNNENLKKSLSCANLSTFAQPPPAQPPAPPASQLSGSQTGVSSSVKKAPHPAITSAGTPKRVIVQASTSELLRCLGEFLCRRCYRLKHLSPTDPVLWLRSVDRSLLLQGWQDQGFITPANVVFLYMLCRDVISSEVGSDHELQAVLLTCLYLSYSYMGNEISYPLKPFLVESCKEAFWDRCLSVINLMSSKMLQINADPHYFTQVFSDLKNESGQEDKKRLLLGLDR

Row | Compound | TTC staining intensity relative to 60 min OGD without inhibitor [2] [fold] | neuroprotective effect against OGD-induced neuronal death [2] | viability (TTC staining) after 60 min OGD [2] | OGD-dependent p25 generation [5] | other results
1 | indolinone A [Indo A] | 95.5±9.6 | significantly blocked neuronal death | 59.7±6.0 % of control levels | – | phospho-Thr75 DARPP-32, reduction to % of basal levels ([1]; 5 μM): 26±8 % of basal levels; IC50 ([1]; 1-10 μM, 1 h): 290 nM; increase in phospho-Ser845 in response to SKF81297 after 10 min of ischemia ([3]; preincubation with Indo A 10 μM, 1 h, 10 min OGD/10 min reperfusion): 4.7±1.2 fold; induction of i-LTP at corticostriatal synapses ([4]; 3 min OGD, n=5): completely blocked the induction of i-LTP; loss of field potential (FP) induced by ischemia ([4]; 10 min OGD): significantly reduced the loss of FP
2 | Indolinone B [Indo B] | – | no such neuroprotective effect | – | – | effect on Cdk5-dependent phosphorylation of DARPP-32 [1]: had no effect
3 | Oc1cc2c(c(Cl)c1O)CCNCC2c1ccccc1 (centres unmarked) [SKF81297] | – | – | – | – | increase in phospho-Ser845 GluR1 ([3]; oxygenated slices, 1 μM, 5 min): 2.0±0.1 fold; increase in phospho-Thr34 DARPP-32 ([3]; oxygenated slices, 1 μM, 5 min): 3.6±0.3 fold
4 | CCCC[C@@H](C=O)NC(=O)[C@H](CC(C)C)NC(=O)OCc1ccccc1 [calpeptin] | 111.3±6.0 | significantly blocked neuronal death | 69.6±6.6 % of control levels | prevented p25 generation | –
5 | CC(C)[C@H](NC(=O)OCc1ccccc1)C(=O)N[C@H](C=O)Cc1ccccc1 [calpain inhibitor 3] (Cbz-Val-Phe-aldehyde) | – | – | – | prevented p25 generation | –
